Experimental data from paper PMC7203344, “Sirtuin 1 Inhibiting Thiocyanates (S1th)—A New Class of Isotype Selective Inhibitors of NAD^+ Dependent Lysine Deacetylases” (Frontiers in Oncology, 2020).

Legend:
HDAC6 = target: T1, HDAC6 (Homo sapiens, UniProt Q9UBN7); assay: Homogeneous ZMAL-based fluorescence assay for HDAC6; type: biochemical
T1 sequence (Q9UBN7 1-1215): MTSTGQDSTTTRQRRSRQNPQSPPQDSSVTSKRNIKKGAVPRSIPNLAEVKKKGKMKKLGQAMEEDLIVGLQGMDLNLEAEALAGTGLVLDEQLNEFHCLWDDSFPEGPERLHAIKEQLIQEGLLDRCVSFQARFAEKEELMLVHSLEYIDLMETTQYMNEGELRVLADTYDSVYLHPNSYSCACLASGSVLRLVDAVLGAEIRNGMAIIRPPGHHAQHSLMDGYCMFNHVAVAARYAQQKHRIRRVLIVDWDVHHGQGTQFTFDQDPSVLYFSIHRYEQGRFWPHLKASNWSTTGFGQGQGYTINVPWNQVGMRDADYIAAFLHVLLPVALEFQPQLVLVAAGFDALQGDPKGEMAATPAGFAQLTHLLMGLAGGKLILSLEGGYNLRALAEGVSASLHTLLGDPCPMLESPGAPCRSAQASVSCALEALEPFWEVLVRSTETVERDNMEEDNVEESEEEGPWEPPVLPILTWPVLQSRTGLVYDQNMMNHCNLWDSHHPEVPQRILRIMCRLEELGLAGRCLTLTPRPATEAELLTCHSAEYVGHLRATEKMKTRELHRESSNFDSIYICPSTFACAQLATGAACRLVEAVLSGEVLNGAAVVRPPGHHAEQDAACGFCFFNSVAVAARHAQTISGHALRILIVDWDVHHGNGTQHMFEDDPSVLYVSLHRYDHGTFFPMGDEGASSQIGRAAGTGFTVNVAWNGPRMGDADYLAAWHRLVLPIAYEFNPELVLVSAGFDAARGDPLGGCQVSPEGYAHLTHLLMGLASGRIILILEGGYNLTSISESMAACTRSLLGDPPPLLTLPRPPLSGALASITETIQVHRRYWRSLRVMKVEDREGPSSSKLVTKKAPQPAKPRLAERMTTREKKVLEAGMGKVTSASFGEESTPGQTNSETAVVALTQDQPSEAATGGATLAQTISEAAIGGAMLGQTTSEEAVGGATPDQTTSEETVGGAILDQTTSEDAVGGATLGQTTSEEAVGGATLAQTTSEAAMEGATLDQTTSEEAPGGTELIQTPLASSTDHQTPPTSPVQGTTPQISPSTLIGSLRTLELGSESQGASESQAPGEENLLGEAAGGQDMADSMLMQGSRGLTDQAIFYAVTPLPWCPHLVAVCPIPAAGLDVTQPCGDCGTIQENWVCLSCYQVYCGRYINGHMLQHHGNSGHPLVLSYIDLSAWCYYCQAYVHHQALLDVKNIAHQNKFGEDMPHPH
Description: The inhibition of HDAC1 and 6 by the S1th and PR-619 was determined via the ZMAL-assay according to the same general procedure described for sirtuins (2.2.1). 5 μL substrate (10.5 μM final assay concentration) were mixed with 3 μL of inhibitor in DMSO or DMSO and 10 μL of HDAC solution (concentration adjusted to 15–30% conversion) and filled up to 60 μL with assay buffer (50 mM Tris, 137 mM NaCl, 1 mM MgCl2, 2,7 mM KCl, 1 mg/ml BSA, pH = 8.0). The mixture was incubated at 37°C and 140 rpm for 1.5 h. For the stop solution Trichostatin A (3.3 μM) was used instead of nicotinamide. Fluorescence intensity was measured as described above. An enzyme free blank control and an AMC containing 100% control were performed as well and inhibition was calculated in % in relation to a DMSO control.

Sirt1 = target: T2, Sirt1 (Homo sapiens, UniProt Q96EB6); assay: Fluorescent thermal shift assay (FTSA), Sirt1; type: binding; conditions: inhibitor 100 μM; read-out: Thermal shift assay: Δ Tm of Sirt1
T2 construct: made in house; host or cells: E. coli BL21 Star (DE3)
T2 sequence (Q96EB6 134-747): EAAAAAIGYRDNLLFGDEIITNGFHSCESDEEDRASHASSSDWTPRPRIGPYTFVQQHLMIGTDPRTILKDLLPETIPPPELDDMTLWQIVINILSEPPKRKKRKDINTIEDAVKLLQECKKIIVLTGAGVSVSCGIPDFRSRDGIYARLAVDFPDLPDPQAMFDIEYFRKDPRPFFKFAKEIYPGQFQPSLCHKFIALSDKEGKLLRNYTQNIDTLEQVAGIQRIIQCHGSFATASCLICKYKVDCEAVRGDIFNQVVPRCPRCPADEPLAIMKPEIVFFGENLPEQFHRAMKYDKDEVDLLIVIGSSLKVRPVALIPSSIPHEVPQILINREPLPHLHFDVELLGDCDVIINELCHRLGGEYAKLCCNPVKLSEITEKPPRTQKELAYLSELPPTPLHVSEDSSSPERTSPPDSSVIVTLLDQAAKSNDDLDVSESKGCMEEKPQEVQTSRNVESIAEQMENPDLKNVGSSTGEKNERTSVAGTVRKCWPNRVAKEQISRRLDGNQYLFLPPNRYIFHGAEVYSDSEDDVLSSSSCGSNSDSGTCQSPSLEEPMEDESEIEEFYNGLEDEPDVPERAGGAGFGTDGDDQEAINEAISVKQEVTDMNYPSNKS
Description: In a 96-well plate (Hard-Shell® PCR-plates, 96-well, thin-wall, BioRAD, USA) 14 μL Sirt1_134−747 in assay buffer (0.3 mg/mL final assay concentration, 50 mM Tris/HCl, 137 mM NaCl, 2.7 mM KCl, 1 mM MgCL2, pH 8.0) were mixed with 1 μL inhibitor in DMSO (100 μM) or DMSO [final assay concentration 5% (v/v)] as a control and 5 μL SyproOrange (1:100 in assay buffer). The fluorescence intensity was monitored during a constant increase of temperature from 20 to 95°C, 1 K per 20 s, using a real-time-PCR-machine (C1000 TouchTM Thermal Cycler, CFX96TM Real-Time System, BioRAD, USA). Melting temperatures were calculated via GraphPad Prism according to a published procedure ([60]).

MCF7 cells = assay: Colony forming assay with MCF7 cells; type: cell-based, human; conditions: concentrations as for HeLa
Description: For colony assays, 50 cells per well were seeded in 6-well plates and grown in the same conditions with the same drug concentrations as for the proliferation assays. In this case, the growth media containing the drugs was replaced every 48 h. After 7–10 days, when isolated colonies were formed, wells were washed with PBS, and cells were fixed with cold methanol for 5 min at RT. Cells were stained with crystal violet for 10 min at RT and washed with H2O. Images were acquired using iBright (Thermo Fisher Scientific, MA, USA). For quantification, cells of each well were resuspended in 10% glacial acetic acid to dissolve crystal violet whose levels were monitored by measuring absorbance at 590 nm. The experiment was performed in duplicates.

Compound	residual activity HDAC6 (HDAC6)	inhibition at 100 µM (HDAC6)	% inhibition @ 100 μM HDAC6 (HDAC6)	ΔTm at 100 µM (Sirt1)	colony forming capabilities of MCF7 cells (MCF7 cells)
N#CSc1cc(SC#N)c(N)nc1N [PR-619, reference compound]	~ 50%	49%	–	–	–
N#CSc1cccc(NC(=O)[C@H]2CC=CC[C@H]2C(=O)O)c1 [S1th 10]	–	19%	29%	-5.9 °C	slightly decreased
CCCCNC(=O)Nc1cccc(SC#N)c1 [S1th 11]	–	< 10%	–	-8.1 °C	–
COc1ccc(SC#N)cc1OCC(=O)N(CCC#N)CCC#N [S1th 12]	–	36%	–	-7.2 °C	barely affected
N#CSc1cccc(NS(=O)(=O)c2ccc3c(c2)OCCO3)c1 [S1th 13]	–	29%	19%	-9.6 °C	significantly decreased
